Paper PMC6221475 (Bioorganic & medicinal chemistry letters, 2018)

How the values were obtained:
VAChT [1] = target: T1, VAChT (Homo sapiens, UniProt Q16572); assay: VAChT competitive binding assay with tritiated vesamicol; details: read-out: Ki-VAChT; tritiated vesamicol as competitive radioligand
T1 sequence (Q16572 1-532): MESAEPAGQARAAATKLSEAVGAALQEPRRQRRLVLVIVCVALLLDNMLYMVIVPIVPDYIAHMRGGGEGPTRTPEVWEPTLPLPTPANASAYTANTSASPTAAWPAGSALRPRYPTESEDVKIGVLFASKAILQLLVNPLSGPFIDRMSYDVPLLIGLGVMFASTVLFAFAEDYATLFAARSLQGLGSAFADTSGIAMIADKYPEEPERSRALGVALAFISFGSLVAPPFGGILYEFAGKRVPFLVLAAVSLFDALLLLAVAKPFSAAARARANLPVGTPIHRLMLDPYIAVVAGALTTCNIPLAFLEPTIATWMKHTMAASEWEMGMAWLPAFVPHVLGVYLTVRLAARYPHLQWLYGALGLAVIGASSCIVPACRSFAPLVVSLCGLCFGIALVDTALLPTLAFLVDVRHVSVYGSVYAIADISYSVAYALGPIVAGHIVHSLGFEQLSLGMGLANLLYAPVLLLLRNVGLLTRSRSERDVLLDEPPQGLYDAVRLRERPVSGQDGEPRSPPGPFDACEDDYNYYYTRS

σ1 receptors = assay: σ1 receptor in vitro binding assay with [3H]pentazocine
σ2 receptors = assay: σ2 receptor in vitro binding assay with [3H]DTG
VAChT [2] = details: cited from earlier work
VAChT [3] = details: cited from earlier work; remark: listed apart in the source

Work on O=C(c1ccc(F)cc1)C1CCN(C2Cc3c(O)cccc3CC2O)CC1 (single isomer, unassigned; (-)) [(−)-1, (−)-(1-(3,8-Dihydroxy-1,2,3,4-tetrahydronaphthalen-2-yl)piperidin-4-yl)(4-fluorophenyl)methanone] yielded a Ki (VAChT [1]) of 4.62 ± 0.22 nM, a Ki (σ1 receptors; read-out: Ki-σ1, [3H]pentazocine as radioligand) of 2010 ± 450 nM and a VAChT/σ1 (σ1 receptors; selectivity ratio for VAChT over σ1) of 435. The Ki (σ2 receptors; read-out: Ki-σ2, [3H]DTG as radioligand) was > 10 µM and the VAChT/σ2 (σ2 receptors; selectivity ratio for VAChT over σ2) was 2165.

In the case of OC1Cc2cccc(OCC[18F])c2CC1N1CCC(c2ccccc2)CC1 (single isomer, unassigned; (-)) [[^18F]FEOBV, (−)-5-[^18F]fluoroethoxybenzovesamicol], the “time required to equilibrate in the striatum” value (VAChT [2]; human, PET, ref [11], [16], [17]) is given as “over 6 h”.

In the case of O=C(c1ccc(F)cc1)C1CCN(C2Cc3c(cccc3OCC[18F])CC2O)CC1 (single isomer, unassigned; (-)) [[^18F]VAT, (−)-(1-(8-(2-[^18F]fluoroethoxy)-3-hydroxy-1,2,3,4tetrahydro-naphthalen-2-yl)-piperidin-4-yl)(4-fluorophenyl)-methanone], the “standardized uptake value (SUV) at peak uptake” value (VAChT [3]; NHP brain, at 15 min, ref [23]) is given as 5.1, the “uptake ratio of target (striatum) to non-target (cerebellum)” value (VAChT [3]; NHP brain, ref [23]) is given as 3.0 and the “time of peak uptake in the brain” value (VAChT [3]; in vivo) is given as 15 min.

For OC1Cc2cccc([123I])c2CC1N1CCC(c2ccccc2)CC1 (single isomer, unassigned; (-)) [[^123I]IBVM, (−)-5-[^123I]iodo-benzovesamicol], the “time of peak uptake in the target regions post-injection” value (VAChT [2]; human subjects, SPECT, ref [10], [13]–[15]) is given as “at least 6 h”.
